For the assay, the system named is Huh7 psiCHECK-miR122 Renilla luciferase reporter, 48 h. Kind of assay: suppression of miR-122 activity, Renilla luciferase sensor – cell-based, Huh7 psiCHECK-miR122, cherry-pick, dose response (AID 652053).

A value given as a limit tells only on which side of the number the result lay.

As for `CCN(CC)C(=S)Nc1ccc(Cl)c(Cl)c1`, the AC40 is 16 µM. Under `COc1ccccc1CN1[C@H](CO)[C@@H]2c3ccccc3N(C(=O)c3ccc(F)cc3)C[C@@H]21` stands 30 µM.

Turning to `C[C@H](CO)N1C[C@H](C)[C@H](CN(C)Cc2ccc(C(=O)Nc3ccccc3N)cc2)Oc2ccc(NC(=O)NC3CCCCC3)cc2CC1=O`, the AC40 was 16.2 µM. Under `CC(=O)N1CCCc2cc(S(=O)(=O)Nc3ccc4c(c3)OCO4)ccc21` stands 6.16 µM.

As for `COc1cccc(NS(=O)(=O)c2cc(C)sc2C)c1`, the AC40 was 1.43 µM. The value for `Cc1cc(C)c(S(=O)(=O)NC2CC3CCC2C3)c(C)c1` (stereo not drawn) was 0.6 µM. The value for `COc1ccc(S(=O)(=O)Nc2cc(C)ccc2OC)cc1C` was 3.63 µM; that for `Cc1cc(S(=O)(=O)Nc2ccc3ccccc3c2)c(C)s1` was 1.06 µM.

In the case of `Cc1cccc(NS(=O)(=O)c2ccc3c(c2)OCCO3)c1`, the AC40 is 1.57 µM. With `Cc1cccc(NS(=O)(=O)c2cc3c4c(c2)CCC(=O)N4CCC3)c1`, the AC40 was 1.94 µM. Under `Cc1noc(C)c1S(=O)(=O)N(C)C[C@@H]1Oc2c(NC(=O)c3cnccn3)cccc2C(=O)N([C@@H](C)CO)C[C@@H]1C` stands 5.81 µM; under `O=C(COc1ccc(S(=O)(=O)NC2CCCCC2)cc1)NC1CCCC1`, 8.46 µM. For `Cc1cc(C)c(S(=O)(=O)NC(C)C)c(C)c1-n1cnnn1`, the AC40 was 1.3 µM.

For `CN1C(=O)c2cc(NC(=O)NCc3ccccc3)ccc2OC[C@@H]2O[C@@H](CC(=O)NCC3CCCCC3)CC[C@@H]21`, the AC40 was 3.21 µM. The value for `COc1cccc(N2CCN(C(=O)c3oc4ccccc4c3NC(=O)CCc3cc(OC)no3)CC2)c1` was 1.31 µM; that for `COCC(=O)Nc1ccc(S(=O)(=O)NCCc2ccccc2)cc1` was 12.9 µM. Under `COC(=O)c1c(C)oc(C)c1S(=O)(=O)NCC1CC1` stands 3.29 µM; under `Cc1ccc(S(=O)(=O)NCc2ccco2)c(C)c1C`, 1.79 µM; under `O=C(C1CCC1)N1CCc2cc(S(=O)(=O)NCc3ccco3)ccc21`, 12.3 µM.

Turning to `Cc1cc(F)ccc1C(O)c1ncc(-c2ccccc2F)[nH]1` (stereo not drawn), the AC40 was 5.29 µM. The value for `C[C@H](CO)N1C[C@H](C)[C@@H](CN(C)CC2CCCCC2)Oc2c(NC(=O)C3CC3)cccc2C1=O` was 0.602 µM; that for `CNC(=S)Nc1ccc(N2CCCC2)c(S(=O)(=O)Nc2ccc(OC)cc2)c1` was 1.31 µM; that for `COc1ccc(NS(=O)(=O)c2ccc(NC(=S)NC(=O)CC(C)C)cc2)cc1` was 0.502 µM. The value for `CN1c2ccc(-c3cccc(F)c3)cc2[C@H]2[C@H](CCN2C(=O)c2ccccc2F)[C@H]1CO` was 0.528 µM. The value for `CCCNC(=O)NNC(=O)c1cc(-c2ccc3c(c2)OCO3)nc2ccccc12` was 2.65 µM; that for `Cc1nc2ccc(NS(=O)(=O)c3c(C)c(C)cc(C)c3C)cc2s1` was 0.68 µM; that for `COc1cccc(CC(=O)Nc2ccc(N3CCOCC3)c(S(=O)(=O)Nc3ccccc3OC)c2)c1` was 1.48 µM.

`COc1ccc(S(=O)(=O)NC2CCCCC2)cc1C`: the AC40 is 3.14 µM. The value for `C[C@@H]1CCCCO[C@@H](CN(C)CC2CCCCC2)[C@@H](C)CN([C@H](C)CO)C(=O)c2cc(NC(=O)CCC(F)(F)F)ccc2O1` was 9.73 µM; that for `COc1ccc(NC(=O)CCC(=O)c2cccs2)cc1S(=O)(=O)Nc1ccc(Cl)cc1` was 0.884 µM; that for `COc1cccc(N2CCN(C(=O)c3oc4ccccc4c3NC(=O)Cc3ccc(OC)c(OC)c3)CC2)c1` was 1.62 µM. The value for `COc1ccc(S(=O)(=O)N2CC[C@@H]3[C@H](CO)N(C)c4ccc(-c5ccc(F)cc5)cc4[C@@H]32)cc1` was 7.49 µM; that for `Cc1ccc(O)c(NC(=O)c2cccc(S(=O)(=O)N3CCCCC3)c2)c1` was 2.39 µM. The value for `CN1CC(c2ccccc2Cl)C2(COc3ccccc3C2=O)C12C(=O)Nc1ccccc12` (stereo not drawn) was 2.2 µM; that for `O=S(=O)(NCc1ccccc1)c1ccc2c(c1)OCCO2` was 3.42 µM; that for `CCCCn1nnnc1C(c1cccc(OC)c1OC)N1CCC2(CC1)C(=O)NCN2c1ccccc1` (stereo not drawn) was 2.44 µM.

Turning to `Cc1cc(C(C)(C)C)cc(S(=O)(=O)NCCO)c1C`, the AC40 is 1.16 µM. The value for `CCCCNS(=O)(=O)c1ccc2nc(-c3cccnc3)cc(C(=O)NC3CCCC3)c2c1` was 5.37 µM; that for `CCC(=O)Nc1ccc(S(=O)(=O)NCCc2ccccc2)cc1` was 10.7 µM; that for `CCCCOCCCNC(=S)Nc1ccc(S(=O)(=O)N2CCOCC2)cc1` was 11 µM. On to `C[C@@H]1CN([C@@H](C)CO)C(=O)Cc2cc(N(C)C)ccc2O[C@@H]1CN(C)Cc1ccc(C(=O)Nc2ccccc2N)cc1`, for which the AC40 is 10 µM.

Turning to `O=C(Nc1ccc(S(=O)(=O)NCCc2ccccc2)cc1)c1ccc(Br)o1`, the AC40 is 0.54 µM. Under `O=C(c1ccccc1F)N1CC[C@@H]2[C@@H](CO)Nc3ccc(-c4cccc(F)c4)cc3[C@@H]21` stands 1.29 µM.

As for `COc1cccc(-c2ccc3c(c2)[C@H]2[C@H](CCN2S(=O)(=O)c2ccccc2C)[C@@H](CO)N3)c1`, the AC40 was 14.3 µM. With `Cc1cc(C)c(S(=O)(=O)NCc2ccccn2)cc1C`, the AC40 is 9.76 µM. The value for `Cc1ccccc1S(=O)(=O)N1CC[C@@H]2[C@@H](CO)N(C)c3ccc(-c4ccccc4)cc3[C@@H]21` was 4.05 µM; that for `Cc1ccccc1OC1C(=O)N(Cc2ccc3c(c2)OCO3)C1c1sccc1C` (stereo not drawn) was 13.7 µM. Under `C[C@H]1CN([C@@H](C)CO)C(=O)c2cccc(NC(=O)Nc3ccc(C(F)(F)F)cc3)c2O[C@@H]1CN(C)CC1CCCCC1` stands 3.47 µM.

For `CCOc1cc(S(=O)(=O)Nc2cc(C)cc(C)c2)ccc1Cl`, the AC40 is 1.99 µM. Consider `O=C(NC1CCCC1)C(c1ccccc1F)N(C(=O)Cc1cccs1)c1ccc2c(c1)OCCO2` (stereo not drawn), for which the AC40 is 25.9 µM. Under `CCN(CC)c1ccc(N)cc1S(=O)(=O)Nc1ccc(OC)cc1` stands 27.3 µM; under `Cc1ccc(C)c(NS(=O)(=O)c2cc(C(=O)NCc3ccco3)ccc2C)c1`, 7.68 µM; under `COC(=O)c1ccc(NS(=O)(=O)c2cc(C)ccc2OC)cc1`, 4.89 µM. Turning to `C[C@@H]1CN([C@H](C)CO)C(=O)c2cccc(NS(=O)(=O)c3cccs3)c2O[C@H]1CN(C)Cc1ccc(C(F)(F)F)cc1`, the AC40 was 1.6 µM. Under `COc1cccc(NS(=O)(=O)c2ccc3c(c2)N(C(C)=O)CCO3)c1` stands 3.67 µM; under `COc1ccc(S(=O)(=O)NC2CCCCC2)c(C)c1C`, 1.57 µM; under `COc1ccc(S(=O)(=O)NCCN2CCOCC2)c2ccccc12`, 0.789 µM. Consider `COc1ccc(NS(=O)(=O)c2cc(NC(=O)c3ccco3)ccc2N2CCCCC2)cc1`, for which the AC40 is less than 0.26 µM. For the compound `CCCNC(=O)C[C@H]1CC[C@H]2[C@H](COc3ccc(NC(=O)c4ccc5c(c4)OCO5)cc3C(=O)N2C)O1`, the AC40 was 14.2 µM. Regarding `Cc1ccc(-c2cnc(C3CC3)o2)cc1S(=O)(=O)Nc1ccccc1`, the AC40 was 3.08 µM. For `CCOC(=O)c1cc(S(=O)(=O)NC2CCCCC2)cn1C`, the AC40 was 5.77 µM. Under `C[C@H](CO)N1C[C@H](C)[C@@H](CN(C)CC2CC2)Oc2c(NC(=O)C3CC3)cccc2C1=O` stands 22.2 µM; under `COc1ccc(NS(=O)(=O)c2cc(NC(=O)CCc3ccc(OC)c(OC)c3)ccc2N2CCOCC2)cc1`, 1.77 µM. The value for `CCCNC(=O)C[C@@H]1CC[C@H]2[C@H](COc3ccc(NC(=O)Nc4ccccc4F)cc3C(=O)N2C)O1` was 2.53 µM; that for `Cc1cccc(NS(=O)(=O)c2csc(C(N)=O)c2)c1` was 3.34 µM. On to `COc1ccc(C)cc1S(=O)(=O)Nc1cc2c3c(c1)CCC(=O)N3CCC2`, for which the AC40 is 1.86 µM. The value for `C[C@@H]1CN([C@@H](C)CO)C(=O)c2cccc(NC(=O)c3cnccn3)c2O[C@H]1CN(C)Cc1ccc(C(F)(F)F)cc1` was 19.2 µM. `O=C(NCC1CCCO1)C(c1cccs1)N(Cc1cccs1)C(=O)Cn1nnc(-c2cccs2)n1` (stereo not drawn): the AC40 was 13.5 µM.

For the compound `C[C@H](CO)N1C[C@H](C)[C@@H](CN(C)Cc2ccc(C(=O)Nc3ccccc3N)cc2)Oc2c(NC(=O)Nc3ccccc3)cccc2C1=O`, the AC40 was 23.5 µM. Under `COc1cc(S(=O)(=O)NC2CCCCC2)c(C)cc1C` stands 0.686 µM; under `O=S(=O)(NC1CC2CCC1C2)c1ccc2c(c1)OCCO2` (stereo not drawn), 3.87 µM; under `O=S(=O)(NCc1cccnc1)c1ccc(Cl)c2ccccc12`, 4.69 µM. Under `CCN(CC)c1ccc(NC(=O)c2cnccn2)cc1S(=O)(=O)Nc1ccc(OC)cc1` stands 0.976 µM; under `CC12CCC3C(CCC4(O)CC(O)CCC34C=O)C1(O)CCC2C1=CC(=O)OC1` (stereo not drawn), 2.4 µM; under `Cc1cc(C(=O)Nc2cccc3c2O[C@@H](CN(C)Cc2ccc(C(F)(F)F)cc2)[C@H](C)CN([C@H](C)CO)C3=O)n(C)n1`, 3.62 µM. The value for `CCCn1c(N)c(C(=O)CSc2nnc(Cc3cccs3)n2C2CC2)c(=O)n(C)c1=O` was 7.17 µM; that for `CCc1ccc(S(=O)(=O)Nc2ccc(Cl)cn2)cc1` was 8.84 µM.

For `O=C1NC(c2cccc3ccccc23)Nc2ccccc21` (stereo not drawn), the AC40 is 5.65 µM. The value for `CCN(CC)c1ccc(S(=O)(=O)Nc2cc(Cl)ccc2Cl)cc1NC(=S)NC(=O)C1CCCC1` was 7.34 µM; that for `Cc1ccc(S(=O)(=O)Nc2cccc(-c3ccc4nncn4n3)c2)cc1` was 9.35 µM; that for `O=C(CCc1ccc(S(=O)(=O)NCCc2ccccc2)cc1)NCc1ccc2c(c1)OCO2` was 8.53 µM. Under `COc1ccc(C2=Nn3c(nnc3-c3ccccc3OC)SC2)cc1OC1CCOC1` (stereo not drawn) stands 8.29 µM; under `CCN(CC)c1ccc(NC(=O)c2ccccn2)cc1S(=O)(=O)Nc1ccccc1OC`, 4.42 µM. In the case of `CCc1c(C(=O)Nc2ccc(OC)cc2)[nH]c(C)c1C(C)=O`, the AC40 is 5.6 µM.

In the case of `Cc1ccc(C)c(S(=O)(=O)NCC(c2ccc3c(c2)OCO3)N2CCOCC2)c1` (stereo not drawn), the AC40 is 1.81 µM. In the case of `COc1ccc(NS(=O)(=O)c2cc(NC(=O)c3ccc(Cl)cc3)ccc2N2CCOCC2)cc1`, the AC40 was less than 0.26 µM.

With `Cc1cc(C)cc(NS(=O)(=O)c2ccc(NC(=S)NC(=O)c3ccc(Br)o3)cc2)c1`, the AC40 is 0.769 µM. Under `O=C(NC(=S)Nc1ccc(S(=O)(=O)NC2CCCCC2)cc1)c1cccs1` stands 0.715 µM.

For the origin of these results see PubChem BioAssay AID652053 (Broad Institute, 2013).
